Reference: the supplement of paper PMC10307832

Legend:
Test in all cases: relative viability (nuclei count vs DMSO), 5 days (fraction); higher = more cells survive
AZD5582 + OSI-027 = compound: C[C@@H](C(=O)N[C@@H](C1CCCCC1)C(=O)N2CCC[C@H]2C(=O)N[C@@H]3[C@@H](CC4=CC=CC=C34)OCC#CC#CCO[C@@H]5CC6=CC=CC=C6[C@@H]5NC(=O)[C@@H]7CCCN7C(=O)[C@H](C8CCCCC8)NC(=O)[C@H](C)NC)NC [AZD5582] + COc1cccc2cc(-c3nc([C@H]4CC[C@H](C(=O)O)CC4)n4ncnc(N)c34)[nH]c12 [OSI-027] (partner 0.5 µM)
How it was run: (§1)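 Lung cancer cell lines were seeded in 1536-well plates and dosed by pin tool the next day, with either a single drug or a fixed anchor-drug dose combined with five library-drug doses (not always all listed) spaced in √10 steps. Five days later, one step fixed the cells and stained their nuclei (final 0.05% Triton X-100, 1% formaldehyde, 1 ug/ml Hoechst), and nuclei were counted on 4× images. Relative viability is the nuclei count in treated wells divided by the count in vehicle wells, and each value is the median of duplicate plates.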

AZD5582 + Crizotinib = compound: C[C@@H](C(=O)N[C@@H](C1CCCCC1)C(=O)N2CCC[C@H]2C(=O)N[C@@H]3[C@@H](CC4=CC=CC=C34)OCC#CC#CCO[C@@H]5CC6=CC=CC=C6[C@@H]5NC(=O)[C@@H]7CCCN7C(=O)[C@H](C8CCCCC8)NC(=O)[C@H](C)NC)NC [AZD5582] + C[C@@H](Oc1cc(-c2cnn(C3CCNCC3)c2)cnc1N)c1c(Cl)ccc(F)c1Cl [Crizotinib] (partner 1 µM)
How it was run: as §1

AZD5582 + Decitabine = compound: C[C@@H](C(=O)N[C@@H](C1CCCCC1)C(=O)N2CCC[C@H]2C(=O)N[C@@H]3[C@@H](CC4=CC=CC=C34)OCC#CC#CCO[C@@H]5CC6=CC=CC=C6[C@@H]5NC(=O)[C@@H]7CCCN7C(=O)[C@H](C8CCCCC8)NC(=O)[C@H](C)NC)NC [AZD5582] + Nc1ncn([C@H]2C[C@H](O)[C@@H](CO)O2)c(=O)n1 [Decitabine] (partner 2 µM)
How it was run: as §1

Temozolomide + OSI-027 = compound: Cn1nnc2c(C(N)=O)ncn2c1=O [Temozolomide] + COc1cccc2cc(-c3nc([C@H]4CC[C@H](C(=O)O)CC4)n4ncnc(N)c34)[nH]c12 [OSI-027] (partner 0.5 µM)
How it was run: as §1

Cell Line | relative viability (AZD5582 + OSI-027; first compound 0.001581 µM) | relative viability (AZD5582 + OSI-027; first compound 0.005 µM) | relative viability (AZD5582 + OSI-027; first compound 0.01581 µM) | relative viability (AZD5582 + OSI-027; first compound 0.05 µM) | relative viability (AZD5582 + Crizotinib; first compound 0.001581 µM) | relative viability (AZD5582 + Crizotinib; first compound 0.005 µM) | relative viability (AZD5582 + Crizotinib; first compound 0.01581 µM) | relative viability (AZD5582 + Crizotinib; first compound 0.05 µM) | relative viability (AZD5582 + Decitabine; first compound 0.001581 µM) | relative viability (AZD5582 + Decitabine; first compound 0.005 µM) | relative viability (AZD5582 + Decitabine; first compound 0.01581 µM) | relative viability (AZD5582 + Decitabine; first compound 0.05 µM) | relative viability (Temozolomide + OSI-027; first compound 0.2 µM) | relative viability (Temozolomide + OSI-027; first compound 0.6325 µM) | relative viability (Temozolomide + OSI-027; first compound 2 µM) | relative viability (Temozolomide + OSI-027; first compound 6.325 µM) | relative viability (Temozolomide + OSI-027; first compound 20 µM)
LCLC-103H | 0.465 | 0.486 | 0.375 | 0.37 | 1.1 | 1.08 | 1.02 | 0.777 | 0.698 | 0.798 | 0.718 | 0.724 | 0.454 | 0.416 | 0.481 | 0.448 | 0.485
NCI-H2087 | 0.523 | 0.695 | 0.514 | 0.568 | 0.689 | 0.911 | 0.692 | 0.937 | 0.336 | 0.299 | 0.255 | 0.28 | 0.628 | 0.565 | 0.634 | 0.464 | 0.612
NCI-H322M | 0.508 | 0.713 | – | 0.562 | 0.852 | 0.944 | 0.636 | 1.31 | 0.762 | 0.739 | 0.652 | 0.737 | – | 0.525 | 0.569 | 0.54 | 0.433
PC-14 | 0.643 | 1.06 | 0.703 | 0.74 | 0.787 | 0.835 | 0.909 | 0.742 | 0.12 | 0.165 | 0.205 | 0.116 | 1.12 | 0.811 | 0.855 | 0.741 | 0.159
NCI-H460 | 0.614 | 0.774 | 0.642 | 0.779 | 0.801 | 0.998 | 0.704 | 0.94 | 0.424 | 0.491 | 0.466 | 0.577 | 0.853 | 0.688 | 0.761 | 0.682 | 0.656
SK-LU-1 | 0.288 | 0.273 | 0.344 | 0.253 | 0.365 | 0.272 | 0.91 | 0.152 | 0.535 | 0.379 | 0.673 | 0.21 | 0.408 | 0.341 | 0.334 | 0.24 | 0.272
H3255 | 0.627 | 0.582 | 0.514 | 0.544 | 0.825 | 0.712 | 0.743 | 0.756 | 0.556 | 0.626 | 0.572 | 0.553 | – | 0.656 | 0.606 | 0.569 | 0.208
NCI-H1355 | 0.355 | 0.468 | 0.288 | 0.322 | 1.02 | 0.857 | 0.982 | 1.05 | 0.359 | 0.317 | 0.357 | 0.364 | 0.349 | 0.421 | 0.455 | 0.382 | 0.352
NCI-H661 | 0.6 | 0.725 | 0.722 | 0.676 | 0.902 | 0.845 | 1.04 | 0.892 | 0.525 | 0.571 | 0.573 | 0.556 | 0.534 | 0.759 | 0.737 | 0.716 | 0.55
NCI-H2170 | 0.653 | 0.759 | 0.683 | 0.866 | 1.1 | 1.25 | 1.18 | 1.47 | 0.489 | 0.474 | 0.478 | 0.504 | – | 0.825 | 0.875 | 0.575 | 0.34
SK-MES-1 | 0.599 | 0.602 | 0.566 | 0.591 | 0.992 | 1.02 | 0.941 | 1.04 | 0.336 | 0.365 | 0.416 | 0.347 | 0.694 | 0.624 | 0.642 | 0.591 | 0.65
EPLC-272H | 0.121 | – | 0.274 | 0.0867 | 0.187 | 0.131 | 0.746 | 0.0674 | 0.148 | – | 0.385 | 0.0824 | 0.257 | 0.279 | 0.295 | 0.291 | 0.216
NCI-H596 | – | – | 0.614 | 0.334 | 0.902 | 0.279 | 1.03 | 0.1 | 1.02 | – | 1.06 | 0.39 | 0.835 | 0.76 | 0.692 | 0.691 | 0.835
201T | 0.721 | 0.831 | 0.675 | 0.492 | 1.09 | 1.12 | 1.04 | 1.25 | 0.866 | 0.913 | 0.856 | 1.02 | 0.77 | 0.716 | 0.583 | 0.769 | 0.794
LU99A | 0.259 | 0.295 | 0.243 | 0.287 | 0.548 | 0.685 | 0.501 | 0.672 | 0.882 | 1.09 | 0.829 | 0.97 | 0.27 | 0.317 | 0.321 | 0.283 | 0.306
NCI-H2126 | 0.709 | 0.703 | 0.522 | 0.607 | 1.04 | 0.932 | 0.967 | 0.662 | 0.53 | 0.577 | 0.581 | 0.59 | 0.686 | 0.781 | 0.85 | 1.12 | 0.717
BEN | 0.295 | 0.301 | 0.349 | 0.282 | 0.658 | 0.784 | 0.979 | 0.848 | 0.699 | 0.668 | 0.683 | 0.62 | 0.326 | 0.289 | 0.296 | 0.283 | 0.306
NCI-H2405 | 0.651 | 0.647 | 0.485 | 0.565 | 0.785 | 0.957 | 0.804 | 0.9 | 0.772 | 0.861 | 0.687 | 0.721 | 0.569 | 0.618 | 0.646 | 0.619 | 0.654
